The subject of one series is Nilaparvata lugens. As to the kind of experiment: Insecticidal activity against Nilaparvata lugens by spraying (mortality after 24 hours). Type of series: in vivo. As to conditions: for mortality at 500 ppm: Nilaparvata lugens, 24 h, read-out: Mortality (%) (500 ppm) Nilaparvata lugens; for Mortality (%) (500 ppm) Nilaparvata lugens: spraying 2 ml, counted after 24 hours. As to the method:
Plant hopper, which belongs to Homoptera and has a piercing-sucking mouthpart, is a common insect for agricultural plant. Nilaparvata lugens was tested by the way of spraying.
Test method: the compound to be tested was exactly formulated into a solution having a certain concentration and clean water was used as a blank control. Each process was repeated for 3 tumblers (3 times). 2 ml of solution was sprayed uniformly to each tumbler by a mini manual sprayer. 10 Nilaparvata lugens were introduced to every sink 6 hours before spraying. Three series of experiments were conducted. The number of killed Nilaparvata lugens was counted after 24 hours to calculate the mortality.

The subject of another series is Aphis craccivora. As to the kind of experiment: Insecticidal activity against Aphis craccivora by immersing (mortality after 24 hours). The following applies: for mortality at 500 ppm: Aphis craccivora, 24 h, read-out: Mortality (%) (500 ppm) Aphis craccivora; for Aphis craccivora LC50 (ppm) / Aphis craccivora Mortality (%) (100 ppm) / Mortality (%) (500 ppm) Aphis craccivora: in vivo. The class given is in vivo. As to the method: Aphis, which belongs to Homoptera and has a piercing-sucking mouthpart, is a common insect for agricultural plant. Aphis craccivora was tested by the way of immersing.
Test method: exactly weighed various samples were independently added to N,N-dimethylformamide to form a 10 g/L stock solution. The mixture was diluted with 0.2 mL/L aqueous Triton X-100 solution to a concentration of 500 ug/mL. After stably sucking on bean sprout, the adult aphis without wings together with bean sprout was dipped into the dilution of 500 ug/mL, 100 ug/mL, 50 ug/mL, 25 ug/mL, 12.5 ug/mL, 6.25 ug/mL (LD50 was calculated), taken out after 5 seconds, and the excess dilution was sucked out with bibulous paper and the adult aphis without wings was incubated in clean vessel at a constant temperature of 23° C. Each concentration was repeated for 3 times and the control group contained 0.2 mL/L aqueous Triton X-100 solution. The number of killed aphis was counted after 24 hours to calculate the mortality.

For the molecule `COC1CC(O)N2CCN(Cc3ccc(Cl)nc3)C2=C1[N+](=O)[O-]` (centres unmarked) [Compound 42, 1-((6-chloropyridin-3-yl)methyl)-7-methoxy-8-nitro-1,2,3,5,6,7-hexahydroimidazo[1,2-a]pyridin-5-ol], the mortality (commonly the percentage killed) at 500 ppm with Nilaparvata lugens was found to be 97%; in the series on Aphis craccivora it was 100%.
`CC(=O)OC1CC(C)C([N+](=O)[O-])=C2N(Cc3ccc(Cl)nc3)CCN21` (centres unmarked) [Compound 11, 1-((6-chloropyridin-3-yl)methyl)-7-methyl-8-nitro-1,2,3,5,6,7-hexahydroimidazo[1,2-a]pyridin-5-yl acetate]: the mortality at 500 ppm in the series on Nilaparvata lugens turned out to be 100%; in the series on Aphis craccivora, 93%.
As for `COC1CC(C)C([N+](=O)[O-])=C2N(Cc3ccc(Cl)nc3)CCN21` (centres unmarked) [Compound 2, 1-((6-chloropyridin-3-yl)methyl)-5-methoxy-7-methyl-8-nitro-1,2,3,5,6,7-hexahydroimidazo[1,2-a]pyridine], the mortality at 500 ppm came out at 100% with Nilaparvata lugens and 98% in the series on Aphis craccivora.
Take `CC(C)OC1CC(C)C([N+](=O)[O-])=C2N(Cc3ccc(Cl)nc3)CCN21` (centres unmarked) [e]: in the series with Aphis craccivora, the “Aphis craccivora LC50 (ppm)” value is reported as 20.5 ppm and the “Aphis craccivora Mortality (%) (100 ppm)” value was determined as 100%.
As to `CC1(C)CC(O)N2CCN(Cc3ccc(Cl)nc3)C2=C1[N+](=O)[O-]` (centres unmarked) [Compound 31], the “Mortality (%) (500 ppm) Nilaparvata lugens” value in the series with Nilaparvata lugens is on record as 100%. The “Mortality (%) (500 ppm) Aphis craccivora” value in the series on Aphis craccivora turned out to be 96%.
Turning to `COC1CC(C)C([N+](=O)[O-])=C2N(CC3CCOC3)CCN21` (centres unmarked) [Compound 16], the “Mortality (%) (500 ppm) Nilaparvata lugens” value with Nilaparvata lugens turned out to be 67%. Also, the “Mortality (%) (500 ppm) Aphis craccivora” value in the series with Aphis craccivora was found to be 45%.
Take `COC1CC(O)N2CCN(Cc3ccc(Cl)nc3)C2=C1[N+](=O)[O-]` (centres unmarked) [n]: in the series with Aphis craccivora, the “Aphis craccivora LC50 (ppm)” value turned out to be 40.5 ppm and the “Aphis craccivora Mortality (%) (100 ppm)” value stood at 96%.
With `O=[N+]([O-])C1=C2N(Cc3ccc(Cl)nc3)CCN2C(O)CC1c1ccccc1` (centres unmarked) [Compound 38, 1-((6-chloropyridin-3-yl)methyl)-8-nitro-7-phenyl-1,2,3,5,6,7-hexahydroimidazo[1,2-a]pyridin-5-ol], the mortality at 500 ppm in the series with Nilaparvata lugens was 0%; with Aphis craccivora, 24%.
With `CCCC1CC(O)N2CCN(Cc3ccc(Cl)nc3)C2=C1[N+](=O)[O-]` (centres unmarked) [Compound 24], in the series with Nilaparvata lugens, the “Mortality (%) (500 ppm) Nilaparvata lugens” value was found to be 89%. Moreover, the “Mortality (%) (500 ppm) Aphis craccivora” value in the series with Aphis craccivora came out at 97%.
In the case of `CC(C)OC1CC(C)C([N+](=O)[O-])=C2N(Cc3ccc(Cl)nc3)CCN21` (centres unmarked) [Compound 6], the “Mortality (%) (500 ppm) Nilaparvata lugens” value in the series on Nilaparvata lugens amounted to 100%. Besides, the “Mortality (%) (500 ppm) Aphis craccivora” value in the series with Aphis craccivora is given as 100%.
Regarding `CCCC1CC([N+](=O)[O-])=C2N(Cc3ccc(Cl)nc3)CCN2C1OCC` (centres unmarked) [Compound 29], in the series with Nilaparvata lugens, the “Mortality (%) (500 ppm) Nilaparvata lugens” value turned out to be 97%. The “Mortality (%) (500 ppm) Aphis craccivora” value in the series with Aphis craccivora was found to be 100%.
For `CCOC1CC(O)N2CCN(Cc3ccc(Cl)nc3)C2=C1[N+](=O)[O-]` (centres unmarked) [Compound 45], the “Mortality (%) (500 ppm) Nilaparvata lugens” value in the series with Nilaparvata lugens is given as 89%. The “Mortality (%) (500 ppm) Aphis craccivora” value in the series on Aphis craccivora is on record as 100%.
The like results for `COC1CC(C)(C)C([N+](=O)[O-])=C2N(Cc3ccc(Cl)nc3)CCN21` (centres unmarked) [Compound 32] were, in that order, 100% and 100%.
The like results for `CCC1C(O)N2CCN(Cc3ccc(Cl)nc3)C2=C([N+](=O)[O-])C1(C)C` (centres unmarked) [Compound 37] were, in that order, 88% and 99%.
The like results for `CCC1CC(O)N2CCN(Cc3ccc(Cl)nc3)C2=C1[N+](=O)[O-]` (centres unmarked) [Compound 22] were, in that order, 98% and 93%.
Regarding `COC1CC([N+](=O)[O-])=C2N(Cc3ccc(Cl)nc3)CCN2C1O` (centres unmarked) [p], in the series on Aphis craccivora, the “Aphis craccivora LC50 (ppm)” value is 47.6 ppm and the “Aphis craccivora Mortality (%) (100 ppm)” value was found to be 93%.
For `CCC1CC([N+](=O)[O-])=C2N(Cc3ccc(Cl)nc3)CCN2C1O` (centres unmarked) [Compound 26], the “Mortality (%) (500 ppm) Nilaparvata lugens” value in the series on Nilaparvata lugens is 100%. In the series on Aphis craccivora, the “Mortality (%) (500 ppm) Aphis craccivora” value stood at 100%.
`COC1CC([N+](=O)[O-])=C2N(Cc3ccc(Cl)nc3)CCN2C1O` (centres unmarked) [Compound 46, 1-((6-chloropyridin-3-yl)methyl)-6-methoxy-8-nitro-1,2,3,5,6,7-hexahydroimidazo[1,2-a]pyridin-5-ol]: the mortality at 500 ppm in the series on Nilaparvata lugens was 73%; in the series with Aphis craccivora, 100%.
As for `CCC1CC(OC(C)C)N2CCN(Cc3ccc(Cl)nc3)C2=C1[N+](=O)[O-]` (centres unmarked) [Compound 23], the “Mortality (%) (500 ppm) Nilaparvata lugens” value with Nilaparvata lugens came to 95%. Further, the “Mortality (%) (500 ppm) Aphis craccivora” value in the series on Aphis craccivora came to 65%.
With `CC1CC(OCC(F)(F)F)N2CCN(Cc3ccc(Cl)nc3)C2=C1[N+](=O)[O-]` (centres unmarked) [Compound 4], the “Mortality (%) (500 ppm) Nilaparvata lugens” value in the series on Nilaparvata lugens is recorded as 100%. Also, in the series with Aphis craccivora, the “Mortality (%) (500 ppm) Aphis craccivora” value amounted to 100%.
Regarding `CC1CC(O)N2CCN(Cc3cnc(Cl)s3)C2=C1[N+](=O)[O-]` (centres unmarked) [f], in the series with Aphis craccivora, the “Aphis craccivora LC50 (ppm)” value came to 68 ppm and the “Aphis craccivora Mortality (%) (100 ppm)” value was found to be 87%.
As for `CCCOC1CC(C)C([N+](=O)[O-])=C2N(Cc3cnc(Cl)s3)CCN21` (centres unmarked) [Compound 14], the “Mortality (%) (500 ppm) Nilaparvata lugens” value with Nilaparvata lugens was found to be 100%. In addition, in the series with Aphis craccivora, the “Mortality (%) (500 ppm) Aphis craccivora” value amounted to 100%.
In the case of `CCCC1C(C)C([N+](=O)[O-])=C2N(Cc3ccc(Cl)nc3)CCN2C1O` (centres unmarked) [Compound 34], the “Mortality (%) (500 ppm) Nilaparvata lugens” value with Nilaparvata lugens turned out to be 90%. In addition, the “Mortality (%) (500 ppm) Aphis craccivora” value with Aphis craccivora came to 95%.
With `CC1CC([N+](=O)[O-])=C2N(Cc3ccc(Cl)nc3)CCN2C1O` (centres unmarked) [Compound 18, 1-((6-chloropyridin-3-yl)methyl)-6-methyl-8-nitro-1,2,3,5,6,7-hexahydroimidazo[1,2-a]pyridin-5-ol], the values for the mortality at 500 ppm in the series on Nilaparvata lugens and with Aphis craccivora were 100% and 98%, respectively.
As for `CCOC1CC(C)C([N+](=O)[O-])=C2N(Cc3ccc(Cl)nc3)CCN21` (centres unmarked) [Compound 3, 1-((6-chloropyridin-3-yl)methyl)-5-ethoxy-7-methyl-8-nitro-1,2,3,5,6,7-hexahydroimidazo[1,2-a]pyridine], the mortality at 500 ppm in the series on Nilaparvata lugens and in the series on Aphis craccivora was 100% each time.
For `CC1CC(O)N2CCN(Cc3cnc(Cl)s3)C2=C1[N+](=O)[O-]` (centres unmarked) [Compound 12, 1-((2-chlorothiazol-5-yl)methyl)-7-methyl-8-nitro-1,2,3,5,6,7-hexahydroimidazo[1,2-a]pyridin-5-ol], the mortality at 500 ppm in the series with Nilaparvata lugens and in the series on Aphis craccivora was 100% in each case.
Consider `COC1CC(c2ccccc2)C([N+](=O)[O-])=C2N(Cc3ccc(Cl)nc3)CCN21` (centres unmarked) [Compound 39], for which the “Mortality (%) (500 ppm) Nilaparvata lugens” value in the series with Nilaparvata lugens is 0%. In addition, the “Mortality (%) (500 ppm) Aphis craccivora” value in the series with Aphis craccivora was 45%.
Take `CC1C([N+](=O)[O-])=C2N(Cc3ccc(Cl)nc3)CCN2C(O)C1C` (centres unmarked) [Compound 30, 1-((6-chloropyridin-3-yl)methyl)-6,7-dimethyl-8-nitro-1,2,3,5,6,7-hexahydroimidazo[1,2-a]pyridin-5-ol]: the mortality at 500 ppm with Nilaparvata lugens and in the series on Aphis craccivora was 100% throughout.
As to `CC1C([N+](=O)[O-])=C2N(Cc3ccc(Cl)nc3)CCN2C(O)C1C` (centres unmarked) [l], in the series on Aphis craccivora, the “Aphis craccivora LC50 (ppm)” value is 86.4 ppm and the “Aphis craccivora Mortality (%) (100 ppm)” value came out at 66.7%.
Regarding `CCCC1CC(O)N2CCN(Cc3ccc(Cl)nc3)C2=C1[N+](=O)[O-]` (centres unmarked) [i], in the series with Aphis craccivora, the “Aphis craccivora LC50 (ppm)” value turned out to be 75.2 ppm and the “Aphis craccivora Mortality (%) (100 ppm)” value is recorded as 77%.
The like results for `CCOC1CC(C)C([N+](=O)[O-])=C2N(Cc3ccc(Cl)nc3)CCN21` (centres unmarked) [c] were, in that order, 65.4 ppm and 67%.
Consider `CCOC1CC(O)N2CCN(Cc3ccc(Cl)nc3)C2=C1[N+](=O)[O-]` (centres unmarked) [o], for which, in the series on Aphis craccivora, the “Aphis craccivora LC50 (ppm)” value is recorded as 66.4 ppm and the “Aphis craccivora Mortality (%) (100 ppm)” value is listed as 82%.
`CCC1C([N+](=O)[O-])=C2N(Cc3ccc(Cl)nc3)CCN2C(O)C1C` (centres unmarked) [m]: in the series on Aphis craccivora, the “Aphis craccivora LC50 (ppm)” value is 75.9 ppm and the “Aphis craccivora Mortality (%) (100 ppm)” value is reported as 87%.
In the case of `CC1CC(O)N2CCN(Cc3ccc(Cl)nc3)C2=C1[N+](=O)[O-]` (centres unmarked) [a], in the series on Aphis craccivora, the “Aphis craccivora LC50 (ppm)” value amounted to 31.5 ppm and the “Aphis craccivora Mortality (%) (100 ppm)” value came out at 95.3%.
The like results for `CC1CC([N+](=O)[O-])=C2N(Cc3ccc(Cl)nc3)CCN2C1O` (centres unmarked) [g] were, in that order, 36.3 ppm and 92%.
On to `COC1CC(C)C([N+](=O)[O-])=C2N(Cc3ccc(Cl)nc3)CCN21` (centres unmarked) [b], for which, in the series on Aphis craccivora, the “Aphis craccivora LC50 (ppm)” value turned out to be 50.8 ppm and the “Aphis craccivora Mortality (%) (100 ppm)” value was found to be 84%.
The like results for `CCCOC1CC(C)C([N+](=O)[O-])=C2N(Cc3ccc(Cl)nc3)CCN21` (centres unmarked) [d] were, in that order, 33.6 ppm and 75.4%.
For `CCC1CC([N+](=O)[O-])=C2N(Cc3ccc(Cl)nc3)CCN2C1O` (centres unmarked) [j], in the series on Aphis craccivora, the “Aphis craccivora LC50 (ppm)” value amounted to 57.3 ppm and the “Aphis craccivora Mortality (%) (100 ppm)” value is on record as 93.6%.
Turning to `CCOC1CC([N+](=O)[O-])=C2N(Cc3ccc(Cl)nc3)CCN2C1O` (centres unmarked) [q], in the series on Aphis craccivora, the “Aphis craccivora LC50 (ppm)” value turned out to be 70.9 ppm and the “Aphis craccivora Mortality (%) (100 ppm)” value is given as 85%.
Take `CCC1CC([N+](=O)[O-])=C2N(Cc3ccc(Cl)nc3)CCN2C1OC` (centres unmarked) [k]: in the series on Aphis craccivora, the “Aphis craccivora LC50 (ppm)” value amounted to 83.0 ppm and the “Aphis craccivora Mortality (%) (100 ppm)” value is given as 92%.

The record behind these values is US20090111847A1, “PREPARATION METHOD AND USE OF COMPOUNDS HAVING HIGH INSECTICIDAL ACTIVITIES” (priority 2006, published 2009).
